Measurements taken from patent US20250171437A1 (Agios Pharmaceuticals,Inc., priority 2022, published 2025).

What follows are compounds tested against T1, human PAH with the R408W mutation (A375 R408W cells) (Homo sapiens, UniProt P00439, R408W) (assay: Cell Based Phenylalanine Flux Assay). Conditions: A375 cells expressing R408W PAH; 24 hrs with compound, then 20 μM sepiapterin and 800 μM 13C9,15N-Phenylalanine for 4 hours; 13C-Tyrosine by LC-MS; average where tested multiple times.
T1 construct: expressed in transfected cells
T1 sequence (P00439 1-452 R408W): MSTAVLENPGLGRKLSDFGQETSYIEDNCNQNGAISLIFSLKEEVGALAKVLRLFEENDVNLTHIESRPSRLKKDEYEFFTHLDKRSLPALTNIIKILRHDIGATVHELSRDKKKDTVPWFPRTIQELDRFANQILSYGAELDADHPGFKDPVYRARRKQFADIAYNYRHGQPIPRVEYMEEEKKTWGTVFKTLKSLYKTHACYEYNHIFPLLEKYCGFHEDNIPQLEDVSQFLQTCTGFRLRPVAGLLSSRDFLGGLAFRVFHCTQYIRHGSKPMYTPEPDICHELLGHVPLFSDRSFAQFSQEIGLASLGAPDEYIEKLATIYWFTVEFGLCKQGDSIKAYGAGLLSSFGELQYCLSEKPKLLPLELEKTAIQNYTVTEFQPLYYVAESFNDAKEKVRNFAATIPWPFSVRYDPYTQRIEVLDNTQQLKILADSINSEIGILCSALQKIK
Experimental: Cells expressing R408W PAH were made by transducing A375 cells with lentivirus encoding human PAH with the R408W mutation in pLVX-Puro, then selecting with puromycin until stable cell lines were generated. A375 R408W cells were seeded into 96 well plates in DMEM+10% FBS at a density of 40,000 cells/well one hour prior to compound addition. Compounds were resuspended in DMSO, and 2-fold serial dilutions were performed to generate a 10-point dose curve. Compounds were added to plated cells in a total volume of 100 μl, and a final DMSO concentration of 0.5%. Each compound was tested in duplicate. Following compound addition, cells were placed in a 5% CO2, 37° C. tissue culture incubator for 24 hrs. After the incubation period, 20 μM sepiapterin and 800 μM 13C9,15N-Phenylalanine were added. After 4 hours, cell media was removed. An aliquot of 10 μl of cell media was combined with 200 μl of extraction buffer (80% acetonitrile/20% H2O) for each well. Determination of ^13C-Tyrosine concentration was assessed by liquid chromatography mass spectrometry.
Specific compounds disclosed herein were tested in the foregoing assay and they were determined to have an AC50 according to the following scores: (A) less than or equal to 0.500 μM, (B) greater than 0.500 and less than […], (C) greater than or equal to 1.000 and less than 5.000 μM, (D) greater than or equal to 5.000 μM, (E) no fit, and (NT) not tested, as shown below. Where a compound was tested multiple times, the average value of the tests is reported.

Structure (SMILES)	AC50 [µM]
O=C(c1nnc(-c2cnn(S(=O)(=O)C3CC3)c2)o1)N1CCc2[nH]cnc2C1c1nc2cc(F)ccc2o1 (stereo not drawn) [listing 1 of 2 here]	≥ 5
O=C(c1cnn2cc(CN3CCC(F)(F)C3)ccc12)N1CCc2[nH]cnc2C1c1nc2cc(F)ccc2o1 (stereo not drawn)	≥ 5
O=C(C1CN(c2ccccn2)C1)N1CCc2[nH]cnc2C1c1nc2cc(F)ccc2o1 (stereo not drawn) [listing 1 of 2 here]	≥ 5
O=C(c1cnn2cc(CCN3CC(F)C3)ccc12)N1CCc2[nH]cnc2C1c1nc2cc(F)ccc2o1 (stereo not drawn) [listing 1 of 2 here]	≥ 5
O=C(c1cnn2cc(CCN3CCOCC3)ccc12)N1CCc2[nH]cnc2C1c1nc2cc(F)ccc2o1 (stereo not drawn) [listing 1 of 2 here]	≥ 5
COCCOc1ccc2c(C(=O)N3CCc4[nH]cnc4C3c3nc4cc(F)ccc4o3)cnn2c1 (stereo not drawn) [listing 1 of 2 here]	≥ 5
COCCCc1ccc2c(C(=O)N3CCc4[nH]cnc4C3c3nc4cc(F)ccc4o3)cnn2c1 (stereo not drawn) [listing 1 of 2 here]	≥ 5
Cc1ccc2nc(C3c4nc[nH]c4CCN3C(=O)c3cncs3)oc2c1 (stereo not drawn) [listing 1 of 2 here]	≥ 5
Cc1ccc2nc(C3c4nc[nH]c4CCN3C(=O)c3cnn4cc(CCN(C)C)ccc34)oc2c1 (stereo not drawn) [listing 1 of 2 here]	≥ 5
COC(=O)Nc1ccc2c(C(=O)N3CCc4[nH]cnc4C3c3nc4cc(F)ccc4o3)cnn2c1 (stereo not drawn) [listing 1 of 2 here]	≥ 5
O=C1CCCN1CCOc1ccc2c(C(=O)N3CCc4[nH]cnc4C3c3nc4cc(F)ccc4o3)cnn2c1 (stereo not drawn)	≥ 5
O=C(c1nnc(-c2cnn(S(=O)(=O)C3CC3)c2)o1)N1CCc2[nH]cnc2C1c1nc2cc(F)ccc2o1 (stereo not drawn) [listing 2 of 2 here]	1 to 5
Cc1ccc2nc(C3c4nc[nH]c4CCN3C(=O)c3nnc(-c4ccc(F)cn4)o3)oc2c1 (stereo not drawn)	1 to 5
O=C(N1CCc2[nH]cnc2C1c1nc2cc(F)ccc2o1)C(F)(F)C1(O)CCC1 (stereo not drawn)	1 to 5
O=C1CN(Cc2ccc3c(C(=O)N4CCc5[nH]cnc5C4c4nc5cc(F)ccc5o4)cnn3c2)CCN1 (stereo not drawn)	≥ 5
O=C(C1CN(c2ccccn2)C1)N1CCc2[nH]cnc2C1c1nc2cc(F)ccc2o1 (stereo not drawn) [listing 2 of 2 here]	1 to 5

Structure (SMILES)	AC50 [µM]
O=C(c1nnc(-c2cnn(CC(F)(F)F)c2)o1)N1CCc2[nH]cnc2C1c1nc2cc(F)ccc2o1 (stereo not drawn)	1 to 5
O=C(c1nnc(-c2ccc(C(F)(F)F)cn2)o1)N1CCc2[nH]cnc2C1c1nc2cc(F)ccc2o1 (stereo not drawn)	1 to 5
O=C(c1cnn2cc(CCN3CC(F)C3)ccc12)N1CCc2[nH]cnc2C1c1nc2cc(F)ccc2o1 (stereo not drawn) [listing 2 of 2 here]	1 to 5
O=C(c1cnn2cc(CCN3CCOCC3)ccc12)N1CCc2[nH]cnc2C1c1nc2cc(F)ccc2o1 (stereo not drawn) [listing 2 of 2 here]	1 to 5
COCCOc1ccc2c(C(=O)N3CCc4[nH]cnc4C3c3nc4cc(F)ccc4o3)cnn2c1 (stereo not drawn) [listing 2 of 2 here]	1 to 5
COCCCc1ccc2c(C(=O)N3CCc4[nH]cnc4C3c3nc4cc(F)ccc4o3)cnn2c1 (stereo not drawn) [listing 2 of 2 here]	1 to 5
O=C(c1cnn2cc(CN3CC(F)C3)ccc12)N1CCc2[nH]cnc2C1c1nc2cc(F)ccc2o1 (stereo not drawn)	1 to 5
O=C(c1cnco1)N1CCc2[nH]cnc2C1c1nc2ccc(Br)cc2o1 (stereo not drawn)	≥ 5
O=C(c1cncs1)N1CCc2[nH]cnc2C1c1nc2ccc(Br)cc2o1 (stereo not drawn)	≥ 5
Cn1cc(-c2ncc(C(=O)N3CCc4[nH]cnc4C3c3nc4ccc(Br)cc4o3)s2)cn1 (stereo not drawn)	1 to 5
O=C(c1cnc(-c2ccccn2)s1)N1CCc2[nH]cnc2C1c1nc2ccc(Br)cc2o1 (stereo not drawn)	1 to 5
Cc1ccc2nc(C3c4nc[nH]c4CCN3C(=O)c3cncs3)oc2c1 (stereo not drawn) [listing 2 of 2 here]	1 to 5
Cc1ccc2nc(C3c4nc[nH]c4CCN3C(=O)c3cnn4cc(CCN(C)C)ccc34)oc2c1 (stereo not drawn) [listing 2 of 2 here]	1 to 5
COC(=O)N1CC(C(=O)N2CCc3[nH]cnc3C2c2nc3cc(F)ccc3o2)C1 (stereo not drawn)	1 to 5
COC(=O)Nc1ccc2c(C(=O)N3CCc4[nH]cnc4C3c3nc4cc(F)ccc4o3)cnn2c1 (stereo not drawn) [listing 2 of 2 here]	1 to 5

Continued, values first:

AC50 [µM]	Structure (SMILES)
≥ 5	Cn1ncc(C(=O)N2CCc3[nH]cnc3C2c2nc3cc(F)ccc3o2)c1C(F)F (stereo not drawn) [listing 1 of 2 here]
≥ 5	O=C(c1cn[nH]c1C(F)F)N1CCc2[nH]cnc2C1c1nc2cc(F)ccc2o1 (stereo not drawn) [listing 1 of 2 here]
≥ 5	Nc1ccc2c(C(=O)N3CCc4[nH]cnc4C3c3nc4cc(F)ccc4o3)cnn2c1 (stereo not drawn) [listing 1 of 2 here]
≥ 5	Cc1ccc2nc(C3c4nc[nH]c4CCN3C(=O)c3ocnc3C#N)oc2c1 (stereo not drawn) [listing 1 of 2 here]
≥ 5	Cc1nc(N2CCC(F)CC2)oc1C(=O)N1CCc2[nH]cnc2C1c1nc2cc(F)ccc2o1 (stereo not drawn) [listing 1 of 2 here]
≥ 5	COCc1ncc(C(=O)N2CCc3[nH]cnc3C2c2nc3cc(F)ccc3o2)o1 (stereo not drawn) [listing 1 of 2 here]
≥ 5	CN1CCN(c2nnc(C(=O)N3CCc4[nH]cnc4C3c3nc4cc(F)ccc4o3)o2)CC1 (stereo not drawn) [listing 1 of 2 here]
≥ 5	COCc1nnc(C(=O)N2CCc3[nH]cnc3C2c2nc3cc(F)ccc3o2)o1 (stereo not drawn) [listing 1 of 2 here]
≥ 5	CN(C)CCCOc1ccc2c(C(=O)N3CCc4[nH]cnc4C3c3nc4cc(F)ccc4o3)cnn2c1 (stereo not drawn) [listing 1 of 2 here]
≥ 5	CN(C)Cc1ncc(C(=O)N2CCc3[nH]cnc3C2c2nc3cc(F)ccc3o2)o1 (stereo not drawn)
≥ 5	Cc1nc(CN(C)C)oc1C(=O)N1CCc2[nH]cnc2C1c1nc2cc(F)ccc2o1 (stereo not drawn) [listing 1 of 2 here]
1 to 5	Cn1nc(C(F)F)cc1C(=O)N1CCc2[nH]cnc2C1c1nc2cc(F)ccc2o1 (stereo not drawn)
1 to 5	O=C(c1nnc(-c2cnn(C(F)F)c2)o1)N1CCc2[nH]cnc2C1c1nc2cc(F)ccc2o1 (stereo not drawn)
1 to 5	Cn1ncc(C(=O)N2CCc3[nH]cnc3C2c2nc3cc(F)ccc3o2)c1C(F)F (stereo not drawn) [listing 2 of 2 here]
1 to 5	O=C(c1cn[nH]c1C(F)F)N1CCc2[nH]cnc2C1c1nc2cc(F)ccc2o1 (stereo not drawn) [listing 2 of 2 here]
1 to 5	O=C(c1cnn2cc(Cl)ccc12)N1CCc2[nH]cnc2C1c1nc2cc(F)ccc2o1 (stereo not drawn)
1 to 5	Nc1ccc2c(C(=O)N3CCc4[nH]cnc4C3c3nc4cc(F)ccc4o3)cnn2c1 (stereo not drawn) [listing 2 of 2 here]
1 to 5	CN(C)c1nnc(C(=O)N2CCc3[nH]cnc3C2c2nc3cc(F)ccc3o2)o1 (stereo not drawn)
≥ 5	COCCNc1nnc(C(=O)N2CCc3[nH]cnc3C2c2nc3cc(F)ccc3o2)o1 (stereo not drawn)

AC50 [µM]	Structure (SMILES)
≥ 5	N#Cc1ncoc1C(=O)N1CCc2[nH]cnc2C1c1nc2cc(F)ccc2o1 (stereo not drawn)
≥ 5	N#Cc1nc(N2CCC(F)CC2)oc1C(=O)N1CCc2[nH]cnc2C1c1nc2cc(F)ccc2o1 (stereo not drawn)
1 to 5	Cc1ccc2nc(C3c4nc[nH]c4CCN3C(=O)c3ocnc3C#N)oc2c1 (stereo not drawn) [listing 2 of 2 here]
1 to 5	O=C(c1ccnn1-c1ccccn1)N1CCc2[nH]cnc2C1c1nc2cc(F)ccc2o1 (stereo not drawn)
1 to 5	Cn1ncnc1C(=O)N1CCc2[nH]cnc2C1c1nc2cc(F)ccc2o1 (stereo not drawn)
1 to 5	Cn1nccc1C(=O)N1CCc2[nH]cnc2C1c1nc2cc(F)ccc2o1 (stereo not drawn)
1 to 5	Cc1nc(N2CCC(F)CC2)oc1C(=O)N1CCc2[nH]cnc2C1c1nc2cc(F)ccc2o1 (stereo not drawn) [listing 2 of 2 here]
1 to 5	COCc1ncc(C(=O)N2CCc3[nH]cnc3C2c2nc3cc(F)ccc3o2)s1 (stereo not drawn)
1 to 5	COCc1ncc(C(=O)N2CCc3[nH]cnc3C2c2nc3cc(F)ccc3o2)o1 (stereo not drawn) [listing 2 of 2 here]
1 to 5	CC(C)(F)c1nnc(C(=O)N2CCc3[nH]cnc3C2c2nc3cc(F)ccc3o2)o1 (stereo not drawn)
1 to 5	O=C(c1nnc(-c2ncccc2F)o1)N1CCc2[nH]cnc2C1c1nc2cc(F)ccc2o1 (stereo not drawn)
1 to 5	CN1CCN(c2nnc(C(=O)N3CCc4[nH]cnc4C3c3nc4cc(F)ccc4o3)o2)CC1 (stereo not drawn) [listing 2 of 2 here]
1 to 5	COCc1nnc(C(=O)N2CCc3[nH]cnc3C2c2nc3cc(F)ccc3o2)o1 (stereo not drawn) [listing 2 of 2 here]
1 to 5	COCCc1ccc2c(C(=O)N3CCc4[nH]cnc4C3c3nc4cc(F)ccc4o3)cnn2c1 (stereo not drawn)
≥ 5	O=C(c1cnn2cc(F)ccc12)N1CCc2[nH]cnc2C1c1nc2cc(F)ccc2o1 (stereo not drawn)
1 to 5	CN(C)CCCOc1ccc2c(C(=O)N3CCc4[nH]cnc4C3c3nc4cc(F)ccc4o3)cnn2c1 (stereo not drawn) [listing 2 of 2 here]
≥ 5	CNCc1ccc2c(C(=O)N3CCc4[nH]cnc4C3c3nc4cc(F)ccc4o3)cnn2c1 (stereo not drawn)
1 to 5	Cc1nc(CN(C)C)oc1C(=O)N1CCc2[nH]cnc2C1c1nc2cc(F)ccc2o1 (stereo not drawn) [listing 2 of 2 here]
1 to 5	CN(C)Cc1nnc(C(=O)N2CCc3[nH]cnc3C2c2nc3cc(F)ccc3o2)o1 (stereo not drawn)
